Values quoted from earlier work, collected in US20140113009A1, “CONTROLLED APPLICATION OF CROSS-LINKING AGENT” (Avedro, Inc., priority 2012, published 2014).

How the values were obtained:
[1] = combined with greater than 40 mM ascorbic acid; after 4 hours of light exposure
[2] = compared with Riboflavin

Row | SMILES | Riboflavin remains unreacted [1] | solubility in water relative to Riboflavin [2]
1 | O=C1O[C@H]([C@@H](O)CO)C(O)=C1O [ascorbic acid] | more than 90% | –
2 | Cc1cc2nc3c(=O)[nH]c(=O)nc-3n(C[C@H](O)[C@H](O)[C@H](O)COP(=O)(O)O)c2cc1C [FMN, Riboflavin-5-phosphate] | – | more soluble in water
